# Read-outs that look alike come from different tables or passages of the source.
# Tests used:
# [1] = cited from earlier work
# [2] = tested on: arthritis after anterior cruciate ligament transection; experiment: Surgical transection of the anterior cruciate ligament (mechanical arthritis model); format: in vivo, Hartley Guinea pigs; settings: introduced into the joint
# Description: Hartley Guinea pigs subjected to surgical transaction of the anterior cruciate ligament represent a mechanical model for arthritis. Typically after the anterior cruciate is severed, the animals develop arthritis within several weeks.
# [3] = tested on: advanced breast, ovarian and non-small cell lung cancer; settings: in vivo; cited from earlier work
# [4] = tested on: normal chondrocytes and non-proliferating synoviocytes; settings: cited from earlier work
# synoviocytes = settings: cited from earlier work
# neutrophil = settings: cited from earlier work
# [5] = tested on: carrageenin-induced arthritis; experiment: Inflammatory carrageenin-induced arthritis model; format: in vivo; settings: rabbits
# angiogenesis = settings: cited from earlier work
# T-cell = settings: cited from earlier work
# [6] = tested on: human prostate cancer cell; settings: in vitro; cited from earlier work
# physchem = settings: organic solvent or mixture, thermodynamic from solid
# Description: The phase separation of the PEG400-TMC/Gly(90/10)900 triblock copolymer from PEG 300 in the presence of water was evaluated to predict its behavior upon dilution in a largely aqueous physiological environment. […] The phase separation is expected to form a PEG 300-rich phase and a PEG400-TMC/Gly(90/10)900-rich phase, the former containing the highest proportion of water. […] Solubility in the PEG 300-rich phase was estimated from co-solvent studies of water/PEG 300 mixtures.
# [7] = tested on: collagen induced arthritis; settings: animal model; cited from earlier work
# AP-1 = settings: via reduced AP-1 binding to DNA; cited from earlier work
# prostate tumors = settings: via inhibition of angiogenesis; cited from earlier work
# prostate cancer [8] = settings: in vitro; cited from earlier work
# prostate cancer [9] = settings: in vivo; cited from earlier work
compound,measurement,setting,value
C[C@@H]1[C@H](O)[C@@H](C)/C=C/C=C/C=C/C=C/C=C/C=C/C=C/[C@H](O[C@@H]2O[C@H](C)[C@@H](O)[C@H](N)[C@@H]2O)C[C@@H]2O[C@](O)(C[C@@H](O)C[C@@H](O)[C@H](O)CC[C@@H](O)C[C@@H](O)CC(=O)O[C@H]1C)C[C@H](O)[C@H]2C(=O)O [Amphotericin],solubility in water,[1]; pH 6 to 7,insoluble in water
CC[C@@]1(O)C(=O)OCc2c1cc1n(c2=O)Cc2cc3ccccc3nc2-1 [Camptothecin],solubility in water,[1],0.001 to 0.002 mg/mL
O=C1c2c(O)cccc2Cc2cccc(O)c21 [Anthralin],solubility in water,[1],practically insoluble in water
CC(=O)O[C@H]1C(=O)[C@@]2(C)[C@H]([C@H](OC(=O)c3ccccc3)[C@]3(O)C[C@H](OC(=O)[C@H](O)[C@@H](NC(=O)c4ccccc4)c4ccccc4)C(C)=C1C3(C)C)[C@]1(OC(C)=O)CO[C@@H]1C[C@@H]2O [Paclitaxel],"effect on arthritic process, cartilage and bone",[2],"greatly retarded the arthritic process and protected not only the cartilage, but also the underlying bone, from breakdown"
same,efficacy against advanced cancers,[3],"shown efficacy against advanced breast, ovarian and non-small cell lung cancer"
same,solubility in water,[1],0.001 to 0.002 mg/mL
same,toxicity to non-proliferating cells,[4],non-toxic to non-proliferating cells
same,apoptosis in synoviocytes,synoviocytes,induces apoptosis in synoviocytes
same,proliferation of synoviocytes,synoviocytes,prevents the proliferation of
same,neutrophil activation,neutrophil,inhibits neutrophil activation
same,effect on cartilage,[5],demonstrated cartilage
same,angiogenesis,angiogenesis,potent inhibitory effect on angiogenesis
same,T-cell function,T-cell,inhibits T-cell function
same,T-cell response to stimuli,T-cell,decreases T-cell response to stimuli
same,prostate cancer cell growth,[6],inhibit human prostate cancer cell growth in vitro
same,solubility,physchem,250 mg/mL
same,collagen induced arthritis,[7],inhibits collagen induced arthritis
same,AP-1 transcription activity,AP-1,inhibits AP-1 transcription activity
COc1ccc2c(c1)c(CC(=O)O)c(C)n2C(=O)c1ccc(Cl)cc1 [Indomethacin],solubility in water,[1],practically insoluble in water
CN(C(=O)c1c(O)c2ccccc2n(C)c1=O)c1ccccc1 [Linomide],antitumor and antimetastatic effects,prostate tumors,both antitumor and antimetastatic effects
COc1cc(/C=C/C(=O)CC(=O)/C=C/c2ccc(O)c(OC)c2)ccc1O [Curcumin],solubility in water,[1],practically insoluble in water
CC1=C(/C=C/C(C)=C/C=C/C(C)=C/C(=O)O)C(C)(C)CCC1 [Tretinoin],solubility in water,[1],practically insoluble in water
O=c1c(-c2ccc(O)cc2)coc2cc(O)cc(O)c12 [Genistein],solubility in water,[1],practically insoluble in water
C[C@]12CC[C@@H]3c4ccc(OC(=O)N(CCCl)CCCl)cc4CC[C@H]3[C@@H]1CC[C@@H]2O [estramustine],efficacy against prostate cancer,prostate cancer [8],some efficacy against prostate cancer
same,efficacy against prostate cancer,prostate cancer [9],some efficacy against prostate cancer
CC[C@]1(O)C[C@@H]2CN(CCc3c([nH]c4ccccc34)[C@@](C(=O)OC)(c3cc4c(cc3OC)N(C)[C@H]3[C@@](O)(C(=O)OC)[C@H](OC(C)=O)[C@]5(CC)C=CCN6CC[C@]43[C@@H]65)C2)C1 [vinblastine],efficacy against prostate cancer,prostate cancer [8],some efficacy against prostate cancer
same,efficacy against prostate cancer,prostate cancer [9],some efficacy against prostate cancer

# Source: patent publication US20080247987A1, “Block Copolymer Compositions and Uses Thereof” (ANGIOTECH INTERNATIONAL AG, priority 2005, published 2008)
